# Patent US9670204B2, “Compounds and pharmaceutical compositions thereof for the treatment of inflammatory disorders” (Galapagos NV, priority 2013, dated 2017)
# How the values were obtained:
# hENPP2 [1] = biological target: T1, hENPP2 (UniProtKB/SwissProt Q13822) (Homo sapiens (Human), UniProt Q13822); assay: hENPP2 biochemical assay, LPC as substrate; settings: LPC (palmitoyl 16:0) as substrate
# In short: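 Human ENPP2 in 50 mM Tris-HCl pH 8.5, 500 mM NaCl, 5 mM KCl, 10 mM CaCl2, 0.1% fatty-acid-free BSA, reacted 30 min at 37 °C with LPC 16:0 (150 µM solution added 1:1). Released choline measured via choline oxidase/peroxidase/TOOS/4-aminoantipyrine quinoneimine dye at 555 nm; IC50 reported.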
# hENPP2 [2] = biological target: T1, hENPP2; assay: fluorescent hENPP2 biochemical assay, FS-3 as substrate; settings: read-out: FS3-IC50
# In short: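 IC50 values come from fluorescence gained as FS-3 is hydrolysed (ex 485, em 520 nm). The reaction, started by adding 0.75 μM FS-3 solution, runs 30 min at 30° C after a 30 min room-temperature preincubation of compound with enzyme. Buffer: Tris-HCl pH 8.0 with NaCl, KCl, MgCl2, CaCl2 and 0.1% BSA.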
# LPA 18:2 in rat plasma = assay: Rat whole blood (plasma) LPA assay; format: biochemical; settings: 2 h at 37 C, LPA 18:2 by LC-MS/MS
# In short: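 Heparinised rat plasma spiked with compound (1% DMSO final), incubated 2 h at 37 °C, 5% CO2 with shaking; controls kept at −20 °C. After methanol precipitation with LPA 17:0 internal standard, LPA 18:2 measured by LC-MS/MS (C18, isocratic), relative quantities from peak area without calibration.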
Compound,IC50 (hENPP2 [1]),IC50 (hENPP2 [2]),IC50 (LPA 18:2 in rat plasma)
"CCc1nc2ccc(C3CCN(CC(=O)N(C)C)CC3)cn2c1N(C)c1nc(-c2ccc(F)cc2)c(C#N)s1 [Compound 145, 2-(4-(3-((5-cyano-4-(4-fluorophenyl)thiazol-2-yl)(methyl)amino)-2-ethylimidazo[1,2-a]pyridin-6-yl)piperidin-1-yl)-N,N-dimethylacetamide]",0.01 to 100 nM,0.01 to 100 nM,0.01 to 100 nM
"CCc1nc2ccc(C3CCN(S(C)(=O)=O)CC3)cn2c1N(C)c1nc(-c2ccc(F)cc2)c(CO)s1 [Compound 147, (2-((2-ethyl-6-(1-(methylsulfonyl)piperidin-4-yl)imidazo[1,2-a]pyridin-3-yl)(methyl)amino)-4-(4-fluorophenyl)thiazol-5-yl)methanol]",100 to 500 nM,0.01 to 100 nM,100 to 500 nM
"CCc1nc2ccc(N3CCN(CC(=O)N(C)C)CC3)cn2c1N(C)c1nc(-c2ccc(F)cc2)c(CO)s1 [Compound 155, 2-(4-(2-ethyl-3-((4-(4-fluorophenyl)-5-(hydroxymethyl)thiazol-2-yl)(methyl)amino)imidazo[1,2-a]pyridin-6-yl)piperazin-1-yl)-N,N-dimethylacetamide]",500 to 1000 nM,0.01 to 100 nM,100 to 500 nM
"CCc1nc2ccc(C3CCN(CC(=O)N4CC(O)C4)CC3)cn2c1N(C)c1nc(-c2ccc(F)cc2)c(CO)s1 [Compound 156, 2-(4-(2-ethyl-3-((4-(4-fluorophenyl)-5-(hydroxymethyl)thiazol-2-yl)(methyl)amino)imidazo[1,2-a]pyridin-6-yl)piperidin-1-yl)-1-(3-hydroxyazetidin-1-yl)ethanone]",500 to 1000 nM,0.01 to 100 nM,> 1000 nM
"CCc1nc2ccc(C3CCN(CC(=O)N4CC(O)C4)CC3)cn2c1N(C)c1nc(-c2ccc(F)cc2)c(C(=O)C(F)(F)F)s1 [Compound 159, 1-(2-((2-ethyl-6-(1-(2-(3-hydroxyazetidin-1-yl)-2-oxoethyl)piperidin-4-yl)imidazo[1,2-a]pyridin-3-yl)(methyl)amino)-4-(4-fluorophenyl)thiazol-5-yl)-2,2,2-trifluoroethanone]",0.01 to 100 nM,0.01 to 100 nM,100 to 500 nM
"CCc1nc2ccc(C3CCN(S(C)(=O)=O)CC3)cn2c1N(C)c1nc(-c2ccc(F)cc2)c(C(=O)C(F)(F)F)s1 [Compound 160, 1-(2-((2-ethyl-6-(1-(methylsulfonyl)piperidin-4-yl)imidazo[1,2-a]pyridin-3-yl)(methyl)amino)-4-(4-fluorophenyl)thiazol-5-yl)-2,2,2-trifluoroethanone]",100 to 500 nM,0.01 to 100 nM,0.01 to 100 nM
"CCc1nc2ccc(N3CCN(CC(=O)N4CC(O)C4)CC3)cn2c1N(C)c1nc(-c2ccc(F)cc2C#N)c(C)s1 [Compound 162, 2-(2-((2-ethyl-6-(4-(2-(3-hydroxyazetidin-1-yl)-2-oxoethyl)piperazin-1-yl)imidazo[1,2-a]pyridin-3-yl)(methyl)amino)-5-methylthiazol-4-yl)-5-fluorobenzonitrile]",100 to 500 nM,0.01 to 100 nM,100 to 500 nM
"CCc1nc2ccc(N3CCN(CC(=O)N4CC(O)C4)CC3)cn2c1N(C)c1nc(-c2ccc(F)cc2C#N)cs1 [Compound 166, 2-(2-((2-ethyl-6-(4-(2-(3-hydroxyazetidin-1-yl)-2-oxoethyl)piperazin-1-yl)imidazo[1,2-a]pyridin-3-yl)(methyl)amino)thiazol-4-yl)-5-fluorobenzonitrile]",0.01 to 100 nM,0.01 to 100 nM,500 to 1000 nM
"CCc1nc2ccc(N3CCN(CC(=O)N4CCC4)CC3)cn2c1N(C)c1nc(-c2ccc(F)cc2C#N)cs1 [Compound 167, 2-(2-((6-(4-(2-(azetidin-1-yl)-2-oxoethyl)piperazin-1-yl)-2-ethylimidazo[1,2-a]pyridin-3-yl)(methyl)amino)thiazol-4-yl)-5-fluorobenzonitrile]",0.01 to 100 nM,0.01 to 100 nM,100 to 500 nM
"CCc1nc2ccc(C3CCN(CC(=O)N4CC(O)C4)CC3)cn2c1N(C)c1nc(-c2ccc(F)cc2C#N)cs1 [Compound 170, 2-(2-((2-ethyl-6-(1-(2-(3-hydroxyazetidin-1-yl)-2-oxoethyl)piperidin-4-yl)imidazo[1,2-a]pyridin-3-yl)(methyl)amino)thiazol-4-yl)-5-fluorobenzonitrile]",0.01 to 100 nM,0.01 to 100 nM,100 to 500 nM
"CCc1nc2ccc(C3CCN(CC(=O)N(C)C)CC3)cn2c1N(C)c1nc(-c2ccc(F)cc2C#N)cs1 [Compound 171, 2-(4-(3-((4-(2-cyano-4-fluorophenyl)thiazol-2-yl)(methyl)amino)-2-ethylimidazo[1,2-a]pyridin-6-yl)piperidin-1-yl)-N,N-dimethylacetamide]",0.01 to 100 nM,0.01 to 100 nM,100 to 500 nM
"CCc1nc2ccc(C3CCN(CC(=O)N4CC(O)C4)CC3)cn2c1N(C)c1nc(-c2ccc(F)cc2C#N)ns1 [Compound 173, 2-(5-((2-ethyl-6-(1-(2-(3-hydroxyazetidin-1-yl)-2-oxoethyl)piperidin-4-yl)imidazo[1,2-a]pyridin-3-yl)(methyl)amino)-1,2,4-thiadiazol-3-yl)-5-fluorobenzonitrile]",0.01 to 100 nM,0.01 to 100 nM,100 to 500 nM
"CN(C)C(=O)CN1CCC(c2ccc3nc(CCC#N)c(N(C)c4nc(-c5ccc(F)cc5)cs4)n3c2)CC1 [Compound 174, 2-(4-(2-(2-cyanoethyl)-3-((4-(4-fluorophenyl)thiazol-2-yl)(methyl)amino)imidazo[1,2-a]pyridin-6-yl)piperidin-1-yl)-N,N-dimethylacetamide]",0.01 to 100 nM,0.01 to 100 nM,0.01 to 100 nM
"CCc1nc2ccc(N3CCN(CCO)CC3)cn2c1N(C)c1nc(-c2ccc(F)cc2)cs1 [Compound 180, 2-(4-(2-ethyl-3-((4-(4-fluorophenyl)thiazol-2-yl)(methyl)amino)imidazo [1,2-a]pyridin-6-yl)piperazin-1-yl)ethanol]",> 1000 nM,0.01 to 100 nM,> 1000 nM
"CCc1nc2ccc(N3CCS(=O)(=O)CC3)cn2c1N(C)c1nc(-c2ccc(F)cc2)cs1 [Compound 182, 4-(2-ethyl-3-((4-(4-fluorophenyl)thiazol-2-yl)(methyl)amino)imidazo[1,2-a]pyridin-6-yl)-thiomorpholine 1,1-dioxide]",> 1000 nM,0.01 to 100 nM,> 1000 nM
"CCc1nc2ccc(C3=CCN(S(C)(=O)=O)CC3)cn2c1N(C)c1nccc(-c2ccc(F)cc2)n1 [Compound 187, 2-ethyl-N-(4-(4-fluorophenyl)pyrimidin-2-yl)-N-methyl-6-(1-(methylsulfonyl)-1,2,3,6-tetrahydropyridin-4-yl)imidazo[1,2-a]pyridin-3-amine]",> 1000 nM,0.01 to 100 nM,100 to 500 nM
"CCc1nc2ccc(N3CCN(S(C)(=O)=O)CC3)cn2c1N(C)c1nc(-c2ccc(Cl)cc2)ns1 [Compound 188, 3-(4-chlorophenyl)-N-(2-ethyl-6-(4-(methylsulfonyl)piperazin-1-yl)imidazo[1,2-a]pyridin-3-yl)-N-methyl-1,2,4-thiadiazol-5-amine]",> 1000 nM,0.01 to 100 nM,> 1000 nM
"CCc1nc2ccc(N3CCN(Cc4cnc[nH]4)CC3)cn2c1N(C)c1nc(-c2ccc(F)cc2)cs1 [Compound 192, N-(6-(4-((1H-imidazol-5-yl)methyl)piperazin-1-yl)-2-ethylimidazo[1,2-a]pyridin-3-yl)-4-(4-fluorophenyl)-N-methylthiazol-2-amine]",500 to 1000 nM,0.01 to 100 nM,> 1000 nM
"CCc1nc2ccc(N3CCN(C(=O)[C@H](C)O)CC3)cn2c1N(C)c1nc(-c2ccc(F)cc2)cs1 [Compound 203, (S)-1-(4-(2-ethyl-3-((4-(4-fluorophenyl)thiazol-2-yl)(methyl)amino)imidazo[1,2-a]pyridin-6-yl)piperazin-1-yl)-2-hydroxypropan-1-one]",> 1000 nM,0.01 to 100 nM,> 1000 nM
"CCc1nc2ccc(N3CCOC3=O)cn2c1N(C)c1nc(-c2ccc(Cl)cc2)cs1 [Compound 206, 3-(3-((4-(4-chlorophenyl)thiazol-2-yl)(methyl)amino)-2-ethylimidazo[1,2-a]pyridin-6-yl)oxazolidin-2-one]",> 1000 nM,0.01 to 100 nM,> 1000 nM
"CCc1nc2ccc(N3CCN(CCO)CC3)cn2c1N(C)c1nc(-c2ccc(Cl)cc2)cs1 [Compound 212, 2-(4-(3-((4-(4-chlorophenyl)thiazol-2-yl)(methyl)amino)-2-ethylimidazo[1,2-a]pyridin-6-yl)piperazin-1-yl)ethanol]",> 1000 nM,0.01 to 100 nM,> 1000 nM
"CCc1nc2ccc(N3CCS(=O)(=O)CC3)cn2c1N(C)c1nc(-c2ccc(Cl)cc2)cs1 [Compound 213, 4-(2-ethyl-3-((4-(4-chlorophenyl)thiazol-2-yl)(methyl)amino)imidazo[1,2-a]pyridin-6-yl)-thiomorpholin-1,1-dioxide]",> 1000 nM,0.01 to 100 nM,> 1000 nM
"CCc1nc2ccc(N3CCN(Cc4ncc[nH]4)CC3)cn2c1N(C)c1nc(-c2ccc(F)cc2)cs1 [Compound 226, N-(6-(4-((1H-imidazol-2-yl)methyl)piperazin-1-yl)-2-ethylimidazo[1,2-a]pyridin-3-yl)-4-(4-fluorophenyl)-N-methylthiazol-2-amine]",> 1000 nM,0.01 to 100 nM,> 1000 nM
